In patent US12083123B2, “Method for the detection of drug-induced organ or tissue injury in IMPDH inhibitor treated patients” (University of Cincinnati, priority 2020, dated 2024):

Tests used:
transplanted liver = experiment: Transplant liver biopsies (histology, EM, LFTs) of liver transplant recipients treated with MMF; type: in vivo, human
Method: One biopsy from a patient (Case 4) was performed for surveillance purpose. Ultrastructural analysis included obtaining a small portion of the liver biopsies and post-fixing in osmium tetroxide and embedded in epoxy resin. Ultra-thin sections were stained with uranyl acetate/lead citrate. Detailed evaluation was made using Morgagni transmission electron microscope (EM, FEI, Hillsboro, OR). 2 H&E (hematoxylin and eosin) and 5 special (1 each for PAS, PASD, reticulin, iron and trichrome) stained slides were used per biopsy. ACR was diagnosed and scored using the Rejection Activity Index (RAI), which included: 1) portal inflammation (score 1-3), 2) bile duct damage (score 1-3), and 3) venous endothelial inflammation (score 1-3). Each score was added (RAI) and the degree of ACR was scored as follows: RAI=0-9; <3: borderline/indeterminate ACR, 3-4: mild ACR, 5-7: moderate ACR and >7: severe ACR. (Banff; 1997). Nonspecific hepatocellular injury is often referred to “reactive changes”. Histologic features of “reactive changes” include enlarged hepatocytes with hydropic changes (expanded, pale to clear cytoplasm) and coarse eosinophilic granules (e.g. mega-mitochondria), and nuclei with anisonucleosis and bi- and multi-nucleation, cholestasis, steatosis and necrosis. Necrosis can range from single cell necrosis (acidophil bodies) to rarely broad necrosis with collapsed lobules.

hepatic Kupffer cells = experiment: Mouse model treated with MMF by oral gavage: light microscopy of tissues, Kupffer cells and IMPDH2 expression; type: in vivo; conditions: MMF 120 mg/kg daily for over two weeks by oral gavage
Method: To further study the potential changes caused by MMF treatment, an animal model (mouse) was used and treated with MMF 120 mg/kg daily for over two weeks by oral gavage. As a control, another group of mice was treated with the vehicle used for MMF. Among the issues investigated (e.g., liver, kidney, ovary, brain, white adipose and brown adipose tissues, pancreas, stomach, lung), a major change that is easily detected by light microscope (400× magnification) is pointed on hepatic Kupffer cells. […] In addition, IMPDH2 expression levels within the Kupffer cells were increased compared to MMF-untreated mouse liver.

[1] = cited from earlier work
Kupffer cells = experiment: Human liver specimens from MMF-treated patients: macrophages in livers (Kupffer cells); type: in vivo
mouse liver hepatocytes = experiment: Mouse study: liver histology and EM image analysis of MMF-treated vs untreated mice; type: in vivo
Method: The body weights of the mice were recoded every day. […] The rest of the mice were sacrificed on day 14 and a necropsy was performed on the surviving mice.
H&E and trichrome staining was performed on each liver sections from 3 MMF treated and 5 untreated mice at a CLIA-certified laboratory at CHLA.
Ultrastructural analysis was performed as described for human liver biopsies on the mouse liver tissue from the MMF treated and untreated mice. The EM images were captured digitally at the same magnification (18,000×). Thirty hepatocytes per mouse liver are selected randomly and the numbers of the mitochondria and lipid droplets were counted per hepatocytes using the digital images. In addition, the greatest dimensions of randomly selected 50 mitochondria per hepatocytes from each mouse were measured using an image analysis software, Cellsens® (Olympus, Tokyo, Japan).
The numbers of the mitochondria and the lipid droplets and the sizes of the mitochondria of the hepatocytes from MMF treated and untreated mice were compared by repeated measures mixed model analysis, with […] as a random effect and group as fixed, at a 0.005 significance level, using Prism8 software (Graphpad Software, San Diego, CA, USA).

[2] = tested on: WT-PI5P4Kβ/Pip4K2b−/− cells; experiment: Lysosomal acidification in serum starved WT-PI5P4Kβ/Pip4K2b−/− cells; type: cell-based; conditions: MPA treatment for 2 h
[3] = Case 1-3, liver transplant recipients treated with MMF
[4] = the 11 patients with elevated LFTs
[5] = EM image analysis, MMF-treated for 14 days vs untreated group

Structure (SMILES)	electron microscopy (EM) finding in transplant liver biopsies (transplanted liver; [3])	histology of transplant liver biopsies (transplanted liver; [3])	LFTs after stopping or reducing MMF (transplanted liver; Case 1 and 2)	changes in the other tissues by standard light microscopic analysis (hepatic Kupffer cells; kidney, ovary, brain, adipose tissues, pancreas, stomach, lung)	Kupffer cell size and numbers (hepatic Kupffer cells; light microscope 400×, vs vehicle)	IMPDH2 expression levels within the Kupffer cells (hepatic Kupffer cells; vs MMF-untreated mouse liver)	patients with elevated LFTs ([1]; of 79 renal transplant recipients treated with MMF)	abnormal LFTs after reduction or withdrawal of MMF ([1]; renal transplant recipients with elevated LFTs)	ALT, median and range [1, 4]	AST, median and range [1, 4]	number and size of macrophages in livers (Kupffer cells) (Kupffer cells)	degree of mitochondrial pleomorphism (size differences) in the hepatocytes (mouse liver hepatocytes; [5])	numbers of lipids (lipid droplets) in the hepatocytes (mouse liver hepatocytes; [5])	numbers of mitochondria in the hepatocytes (mouse liver hepatocytes; [5])	death during treatment (mouse liver hepatocytes; MMF treated group, 14 day treatment)	liver histology (H&E) (mouse liver hepatocytes; MMF-treated for 14 days vs untreated mice)	lysosomal acidification [2]
COc1c(C)c2c(c(O)c1C/C=C(\C)CCC(=O)OCCN1CCOCC1)C(=O)OC2 [MMF, mycophenolate mofetil]	mitochondrial pleomorphism and crystalloid inclusions	only mild nonspecific hepatocellular injury	improved	did not show any significant changes	enlarged (hyperplasia/activated) and increased in their numbers	increased	13.9%	normalized	222.0 (51-508) U/L	83.0 (50-123) U/L	significant increase	significantly increased	significantly increased	significantly increased	Two mice in the MMF treated group died	no recognizable differences	
COc1c(C)c2c(c(O)c1C/C=C(\C)CCC(=O)O)C(=O)OC2 [MPA, mycophenolic acid]																	suppressed lysosomal acidification
